From patent US5556849A, “Ruthenium containing phthalocyanin photosensitizers” (priority 1991, dated 1996)
Each block holds one compound with its values, some of them ahead of it.

Columns and labels:
[1] = tested on: Adherent cells (HeLa RCA. SKOV OVCAR); assay: Phototoxicity (Light): 3H-thymidine incorporation in adherent cells after irradiation, with dark cytotoxicity for PI; type: cell-based; conditions: for PI (phototoxicity index): ratio of PC50 to cytotoxic concentration 50% (no light); for IC50 / PC50 (phototoxic concentration 50%): with light dose, 50% reduction in cancer cell growth vs untreated control, 24 h incubation with sensitizer; for IC50: read-out: PC50 (phototoxic concentration 50%)
Description: The media is removed and the cells washed three times with D-PBS. and then covered with D-PBS (200 μl ) and exposed to light from the same source used in the singlet oxygen assay.
This follows the procedure for phototoxicity except that the cells are never exposed to light. The assay is relative to a non-treated control.
(§1) Compounds according to the invention were assessed and characterised by their light absorption maxima, and their molar extinction coefficients according to conventional test procedures. Most of the compound were tested for their biological activity according to conventional test procedures in the art. The PC50 represents phototoxic concentration 50%. which is the concentration of compound when exposed to a light dose as described herein, causes a 50% reduction in cancer cell growth vs an untreated control population. The phototoxicity index. PI, is the ratio of the PC50 to the cytotoxic concentration 50%. where the growth is reduced by 50% without a light dose being given.
PC50 is determined by a relatively simple in vitro assay on a cellular level, which is generally indicative of photosensitizing activity.

[2] = Light absorption maxima and molar extinction coefficients; type: physicochemical
Description: as §1

Structure (SMILES): O=S(=O)([O-])c1cccc(P(c2ccccc2)c2ccccc2)c1.O=S(=O)([O-])c1cccc(P(c2ccccc2)c2ccccc2)c1.[K+].[K+].c1ccc2cc3c(cc2c1)C1=NC2=NC(=Nc4c5cc6ccccc6cc5c5[n]4[Ru][n]4c(c6cc7ccccc7cc6c4=N5)=NC3=N1)c1cc3ccccc3cc12 [RuNc(TPPMS)2]
PI (phototoxicity index) [1]: 1.6 | IC50 [1]: 2700 nM | ε (molar extinction coefficient) [2]: 54000 M⁻¹ cm⁻¹ | λmax Q ([2]; in water (W)): 734

Structure (SMILES): NCCC(=O)[O-].NCCC(=O)[O-].[K+].[K+].c1ccc2cc3c(cc2c1)C1=NC2=NC(=Nc4c5cc6ccccc6cc5c5[n]4[Ru][n]4c(c6cc7ccccc7cc6c4=N5)=NC3=N1)c1cc3ccccc3cc12 [RuNc(β-ALA)2]
PI (phototoxicity index) [1]: 1.51 | IC50 [1]: 960 nM | ε (molar extinction coefficient) [2]: 36500 M⁻¹ cm⁻¹ | λmax Q ([2]; in water (W)): 730

Structure (SMILES): O=S(=O)([O-])c1cccc(P(c2ccccc2)c2ccccc2)c1.O=S(=O)([O-])c1cccc(P(c2ccccc2)c2ccccc2)c1.[K+].[K+].c1ccc2c(c1)C1=NC3=NC(=Nc4c5ccccc5c5[n]4[Ru][n]4c(c6ccccc6c4=N5)=NC2=N1)c1ccccc13 [RuPc(TPPMS)2]
ε (molar extinction coefficient) [2]: 90300 M⁻¹ cm⁻¹ | λmax Q ([2]; in water (W)): 652

Structure (SMILES): NCCS(=O)(=O)[O-].NCCS(=O)(=O)[O-].O.O.O.O.O.O.[Na+].[Na+].c1ccc2c(c1)C1=NC3=NC(=Nc4c5ccccc5c5[n]4[Ru][n]4c(c6ccccc6c4=N5)=NC2=N1)c1ccccc13 [RuPc(Tau)2 (Ex 3), Na2 [Ru(Pc)bis(taurine)]hexahydrate]
PI (phototoxicity index) [1]: > 1.1 | IC50 [1]: 9000 nM | ε (molar extinction coefficient) [2]: 79800 M⁻¹ cm⁻¹ | λmax Q ([2]; in methanol (M)): 623 | λmax Q ([2]; in water (W)): 634

Structure (SMILES): NCCC(=O)[O-].NCCC(=O)[O-].[K+].[K+].c1ccc2c(c1)C1=NC3=NC(=Nc4c5ccccc5c5[n]4[Ru][n]4c(c6ccccc6c4=N5)=NC2=N1)c1ccccc13 [RuPc(β-ALA)2]
IC50 [1]: 1900 nM | ε (molar extinction coefficient) [2]: 105000 M⁻¹ cm⁻¹

Structure (SMILES): O=S(=O)(O)c1ccc[n+]([Ru-2]2([n+]3cccc(S(=O)(=O)O)c3)[n]3c4c5cc6ccccc6cc5c3N=C3N=C(N=c5c6cc7ccccc7cc6c([n]52)=NC2=NC(=N4)c4cc5ccccc5cc42)c2cc4ccccc4cc23)c1.[Na+].[Na+] [RuNc(3PS)2]
IC50 [1]: 460 nM

Structure (SMILES): O=C([O-])c1cccc(P(c2ccccc2)c2ccccc2)c1.[Na+].c1ccc2c(c1)C1=NC2=Nc2c3ccccc3c3[n]2[Ru][n]2c(c4ccccc4c2=NC2=NC(=N3)c3ccccc32)=N1.c1ccncc1 [RuPc(py)(TPPMC)]
ε (molar extinction coefficient) [2]: 54600 M⁻¹ cm⁻¹ | λmax Q ([2]; in water (W)): 644

Structure (SMILES): Fc1c(F)c(F)c2c(c1F)C1=NC2=Nc2c3c(F)c(F)c(F)c(F)c3c3[n]2[Ru][n]2c(c4c(F)c(F)c(F)c(F)c4c2=NC2=NC(=N3)c3c(F)c(F)c(F)c(F)c32)=N1.O=C(O)c1cccnc1.O=C(O)c1cccnc1 [RuF16 Pc(Nic)2]
PC50 (phototoxic concentration 50%) [1]: Inactive | ε (molar extinction coefficient) [2]: 55700 M⁻¹ cm⁻¹

Structure (SMILES): O=C(O)c1ccncc1C(=O)O.O=C(O)c1ccncc1C(=O)O.c1ccc2c(c1)C1=NC2=Nc2c3ccccc3c3[n]2[Ru][n]2c(c4ccccc4c2=NC2=NC(=N3)c3ccccc32)=N1 [RuPc(34PDCA)2]
PI (phototoxicity index) [1]: 47.6 | IC50 [1]: 2100 nM | ε (molar extinction coefficient) [2]: 58800 M⁻¹ cm⁻¹ | λmax Q ([2]; in water (W)): 630

Structure (SMILES): O=C(O)c1cccnc1.O=C(O)c1cccnc1.c1ccc2c(c1)C1=NC2=Nc2c3ccccc3c3[n]2[Ru][n]2c(c4ccccc4c2=NC2=NC(=N3)c3ccccc32)=N1 [RuPc(Nic)2]
PI (phototoxicity index) [1]: > 79 | IC50 [1]: 1260 nM | ε (molar extinction coefficient) [2]: 648000 M⁻¹ cm⁻¹ | λmax Q ([2]; in water (W)): 630

Structure (SMILES): Nc1ccc(O)c(C(=O)O)c1.Nc1ccc(O)c(C(=O)O)c1.c1ccc2c(c1)C1=NC3=NC(=Nc4c5ccccc5c5[n]4[Ru][n]4c(c6ccccc6c4=N5)=NC2=N1)c1ccccc13 [RuPc(5AS)2]
IC50 [1]: 2000 nM | ε (molar extinction coefficient) [2]: 66500 M⁻¹ cm⁻¹

Structure (SMILES): O=C(O)c1cccnc1.O=C(O)c1cccnc1.c1cnc2c(n1)C1=NC2=Nc2c3nccnc3c3[n]2[Ru][n]2c(c4nccnc4c2=NC2=NC(=N3)c3nccnc32)=N1 [RupyrPc(Nic)2]
PI (phototoxicity index) [1]: 1 | PC50 (phototoxic concentration 50%) [1]: Inactive | ε (molar extinction coefficient) [2]: 45100 M⁻¹ cm⁻¹ | λmax Q ([2]; in water (W)): 625

Structure (SMILES): O=S(=O)([O-])c1cccnc1.O=S(=O)([O-])c1cccnc1.[Na+].[Na+].c1ccc2c(c1)C1=NC2=Nc2c3ccccc3c3[n]2[Ru][n]2c(c4ccccc4c2=NC2=NC(=N3)c3ccccc32)=N1 [RuPc(3PS)2]
PI (phototoxicity index) [1]: > 109 | IC50 [1]: 929 nM | ε (molar extinction coefficient) [2]: 736000 M⁻¹ cm⁻¹ | λmax Q ([2]; in water (W)): 630

ε (molar extinction coefficient) [2]: 63300 M⁻¹ cm⁻¹ | λmax Q ([2]; in water (W)): 641
Structure (SMILES): Cc1cc2c(cc1C)C1=Nc3c4cc(C)c(C)cc4c4[n]3[Ru][n]3c(c5cc(C)c(C)cc5c3=NC3=NC(=N4)c4cc(C)c(C)cc43)=NC2=N1.O=C(O)c1cncc(C(=O)O)c1.O=C(O)c1cncc(C(=O)O)c1 [Ru(oMe)8 Pc(35PDCA2)]
PI (phototoxicity index) [1]: 1 | PC50 (phototoxic concentration 50%) [1]: Inactive

Structure (SMILES): O=S(=O)([O-])c1cccc(P(c2cccc(S(=O)(=O)[O-])c2)c2cccc(S(=O)(=O)[O-])c2)c1.O=S(=O)([O-])c1cccc(P(c2cccc(S(=O)(=O)[O-])c2)c2cccc(S(=O)(=O)[O-])c2)c1.[Na+].[Na+].[Na+].[Na+].[Na+].[Na+].c1ccc2cc3c(cc2c1)C1=NC2=NC(=Nc4c5cc6ccccc6cc5c5[n]4[Ru][n]4c(c6cc7ccccc7cc6c4=N5)=NC3=N1)c1cc3ccccc3cc12 [RuNc(TPPTS)2]
IC50 [1]: > 100000 nM | λmax Q ([2]; in water (W)): 720

Structure (SMILES): Nc1cccc(C(=O)O)c1.Nc1cccc(C(=O)O)c1.c1ccc2c(c1)C1=NC3=NC(=Nc4c5ccccc5c5[n]4[Ru][n]4c(c6ccccc6c4=N5)=NC2=N1)c1ccccc13 [RuPc(ABA)2]
PI (phototoxicity index) [1]: 8.8 | IC50 [1]: 3500 nM | ε (molar extinction coefficient) [2]: 72500 M⁻¹ cm⁻¹ | λmax Q ([2]; in water (W)): 638

Structure (SMILES): O=C(O)c1cccnc1.O=C(O)c1cccnc1.c1ccc2cc3c(cc2c1)C1=NC3=Nc2c3cc4ccccc4cc3c3[n]2[Ru][n]2c(c4cc5ccccc5cc4c2=NC2=NC(=N3)c3cc4ccccc4cc32)=N1 [RuNc(Nic)2]
PI (phototoxicity index) [1]: 22.2 | IC50 [1]: 105 nM | ε (molar extinction coefficient) [2]: 169000 M⁻¹ cm⁻¹ | λmax Q ([2]; in water (W)): 762

ε (molar extinction coefficient) [2]: 83000 M⁻¹ cm⁻¹ | λmax Q ([2]; in water (W)): 730
Structure (SMILES): O=S(=O)([O-])c1ccc[n+]([Ru-2]2([n+]3cccc(S(=O)(=O)[O-])c3)[n]3c4c5cc6ccccc6cc5c3N=C3N=C(N=c5c6cc7ccccc7cc6c([n]52)=NC2=NC(=N4)c4cc5ccccc5cc42)c2cc4ccccc4cc23)c1.[Na+].[Na+] [RuNc(3PS)2]
PI (phototoxicity index) [1]: 32.6

ε (molar extinction coefficient) [2]: 72500 M⁻¹ cm⁻¹ | λmax Q ([2]; in water (W)): 632
Structure (SMILES): O.O.O.O.O=S(=O)([O-])CCc1cc[n+]([Ru-2]2([n+]3ccc(CCS(=O)(=O)[O-])cc3)[n]3c4c5ccccc5c3N=C3N=C(N=c5c6ccccc6c([n]52)=NC2=NC(=N4)c4ccccc42)c2ccccc23)cc1.[K+].[K+] [RuPc(PES)2 (Ex 2), K2 [Ru(Pc)bis(4-pyridineethanesulfonate)]tetrahydrate]
PI (phototoxicity index) [1]: 1 | PC50 (phototoxic concentration 50%) [1]: Inactive

Structure (SMILES): O=C(O)c1cncc(C(=O)O)c1.O=C(O)c1cncc(C(=O)O)c1.c1ccc2c(c1)C1=NC2=Nc2c3ccccc3c3[n]2[Ru][n]2c(c4ccccc4c2=NC2=NC(=N3)c3ccccc32)=N1 [RuPc(35PDCA)2]
PI (phototoxicity index) [1]: > 5.6 | IC50 [1]: 18000 nM | ε (molar extinction coefficient) [2]: 48400 M⁻¹ cm⁻¹ | λmax Q ([2]; in water (W)): 632

Structure (SMILES): N#Cc1cccc(C(=O)O)c1.N#Cc1cccc(C(=O)O)c1.c1ccc2c(c1)C1=NC3=NC(=Nc4c5ccccc5c5[n]4[Ru][n]4c(c6ccccc6c4=N5)=NC2=N1)c1ccccc13 [RuPc(CBA)2]
PI (phototoxicity index) [1]: 10.2 | IC50 [1]: 420 nM | ε (molar extinction coefficient) [2]: 97600 M⁻¹ cm⁻¹ | λmax Q ([2]; in water (W)): 650

Structure (SMILES): O=S(=O)([O-])c1cccc(P(c2cccc(S(=O)(=O)[O-])c2)c2cccc(S(=O)(=O)[O-])c2)c1.O=S(=O)([O-])c1cccc(P(c2cccc(S(=O)(=O)[O-])c2)c2cccc(S(=O)(=O)[O-])c2)c1.[Na+].[Na+].[Na+].[Na+].[Na+].[Na+].c1ccc2c(c1)C1=NC3=NC(=Nc4c5ccccc5c5[n]4[Ru][n]4c(c6ccccc6c4=N5)=NC2=N1)c1ccccc13 [RuPc(TPPTS)2]
PI (phototoxicity index) [1]: > 15 | IC50 [1]: 11300 nM | ε (molar extinction coefficient) [2]: 87400 M⁻¹ cm⁻¹ | λmax Q ([2]; in water (W)): 650
